Data: the kinase profiling compilation of Christmann-Franck et al. (2016)
One block for each compound: values may come before it.

Columns and labels:
Assay in all cases: radiometric filter-binding kinase assay
[1] = test system: AKT1 (human), P31749 [S473D]
BRSK2 (human) = BRSK2 (human) (UniProt Q8IWQ3)
BTK (human) = BTK (human) (UniProt Q06187)
CSK (human) = CSK (human) (UniProt P41240)
CSNK1D (human) = CSNK1D (human) (UniProt P48730)
EEF2K (human) = EEF2K (human) (UniProt O00418)
FGFR1 (human) = FGFR1 (human) (UniProt P11362)
GSK3B (human) = GSK3B (human) (UniProt P49841)
IKBKB (human) = IKBKB (human) (UniProt O14920)
MAPK1 (human) = MAPK1 (human) (UniProt P28482)
MAPK15 (human) = MAPK15 (human) (UniProt Q8TD08)
MAPK3 (human) = MAPK3 (human) (UniProt P27361)
MAPK8 (human) = MAPK8 (human) (UniProt P45983)
MAPK9 (human) = MAPK9 (human) (UniProt P45984)
MKNK2 (human) = MKNK2 (human) (UniProt Q9HBH9)
NEK6 (human) = NEK6 (human) (UniProt Q9HC98)
PAK7 (human) = PAK7 (human) (UniProt Q9P286)
PLK1 (human) = PLK1 (human) (UniProt P53350)
RPS6KA3 KD1 KD2 (human) = RPS6KA3 KD1 KD2 (human) (UniProt P51812)
RPS6KA5 KD1 KD2 (human) = RPS6KA5 KD1 KD2 (human) (UniProt O75582)
SRPK1 (human) = SRPK1 (human) (UniProt Q96SB4)
TBK1 (human) = TBK1 (human) (UniProt Q9UHD2)
Chain of TBK1 (human) (Q9UHD2 whole entry, looked up): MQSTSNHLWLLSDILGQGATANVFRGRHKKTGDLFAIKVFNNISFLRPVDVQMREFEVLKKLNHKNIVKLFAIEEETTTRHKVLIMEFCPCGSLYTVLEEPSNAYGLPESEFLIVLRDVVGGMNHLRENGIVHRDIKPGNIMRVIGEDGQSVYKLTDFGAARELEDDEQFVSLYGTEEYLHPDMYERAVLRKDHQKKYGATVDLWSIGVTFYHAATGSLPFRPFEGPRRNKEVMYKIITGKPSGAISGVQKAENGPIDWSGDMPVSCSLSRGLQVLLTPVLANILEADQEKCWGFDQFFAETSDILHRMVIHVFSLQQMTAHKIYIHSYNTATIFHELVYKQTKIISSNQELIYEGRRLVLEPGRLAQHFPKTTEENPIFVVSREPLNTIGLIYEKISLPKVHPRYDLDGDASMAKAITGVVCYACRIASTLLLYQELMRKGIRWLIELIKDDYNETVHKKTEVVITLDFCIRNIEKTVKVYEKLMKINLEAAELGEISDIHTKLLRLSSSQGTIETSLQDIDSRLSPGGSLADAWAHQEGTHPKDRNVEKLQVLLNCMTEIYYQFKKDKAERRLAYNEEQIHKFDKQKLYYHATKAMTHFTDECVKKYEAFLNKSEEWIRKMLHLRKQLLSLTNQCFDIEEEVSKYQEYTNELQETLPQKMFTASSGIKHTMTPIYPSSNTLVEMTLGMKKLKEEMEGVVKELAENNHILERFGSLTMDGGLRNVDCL

Chain of BTK (human) (Q06187 whole entry, looked up): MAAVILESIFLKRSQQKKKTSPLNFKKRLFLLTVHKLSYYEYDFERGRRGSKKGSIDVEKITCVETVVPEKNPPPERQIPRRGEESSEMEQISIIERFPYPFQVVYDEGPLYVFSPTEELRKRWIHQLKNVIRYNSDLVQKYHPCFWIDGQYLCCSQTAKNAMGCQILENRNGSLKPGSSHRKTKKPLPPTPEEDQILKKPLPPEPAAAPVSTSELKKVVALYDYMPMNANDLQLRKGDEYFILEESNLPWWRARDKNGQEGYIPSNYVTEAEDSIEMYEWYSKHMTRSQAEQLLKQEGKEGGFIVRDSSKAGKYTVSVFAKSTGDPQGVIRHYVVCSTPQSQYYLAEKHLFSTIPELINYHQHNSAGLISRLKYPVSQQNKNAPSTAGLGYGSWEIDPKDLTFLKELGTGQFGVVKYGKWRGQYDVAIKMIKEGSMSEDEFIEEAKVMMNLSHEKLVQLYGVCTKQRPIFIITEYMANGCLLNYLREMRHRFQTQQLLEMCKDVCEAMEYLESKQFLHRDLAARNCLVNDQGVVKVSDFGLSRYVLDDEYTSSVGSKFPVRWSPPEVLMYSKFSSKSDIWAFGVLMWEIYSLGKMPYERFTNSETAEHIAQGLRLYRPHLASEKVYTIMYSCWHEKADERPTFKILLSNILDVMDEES
Chain of MAPK3 (human) (P27361 whole entry, looked up): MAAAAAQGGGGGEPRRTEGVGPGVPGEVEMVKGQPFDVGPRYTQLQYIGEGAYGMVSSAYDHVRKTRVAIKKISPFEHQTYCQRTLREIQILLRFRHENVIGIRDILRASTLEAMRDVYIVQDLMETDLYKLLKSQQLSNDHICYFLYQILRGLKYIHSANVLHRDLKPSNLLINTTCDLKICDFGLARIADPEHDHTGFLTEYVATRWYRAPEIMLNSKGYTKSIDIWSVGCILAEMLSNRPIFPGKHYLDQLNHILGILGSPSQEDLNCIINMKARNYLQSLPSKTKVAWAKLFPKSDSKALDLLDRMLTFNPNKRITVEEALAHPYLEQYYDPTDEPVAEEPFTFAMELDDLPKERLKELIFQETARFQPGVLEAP
Chain of MAPK9 (human) (P45984 whole entry, looked up): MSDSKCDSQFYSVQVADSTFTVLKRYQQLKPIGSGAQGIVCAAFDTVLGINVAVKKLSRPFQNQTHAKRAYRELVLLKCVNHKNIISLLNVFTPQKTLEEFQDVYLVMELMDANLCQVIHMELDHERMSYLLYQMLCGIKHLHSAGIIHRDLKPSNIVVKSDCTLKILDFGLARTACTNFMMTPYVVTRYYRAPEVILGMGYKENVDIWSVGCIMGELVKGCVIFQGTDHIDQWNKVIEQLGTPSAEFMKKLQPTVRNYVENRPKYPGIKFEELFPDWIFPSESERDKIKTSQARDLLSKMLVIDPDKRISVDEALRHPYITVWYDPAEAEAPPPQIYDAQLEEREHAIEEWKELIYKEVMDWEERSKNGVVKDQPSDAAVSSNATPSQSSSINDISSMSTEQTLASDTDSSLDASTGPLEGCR
Chain of SRPK1 (human) (Q96SB4 whole entry, looked up): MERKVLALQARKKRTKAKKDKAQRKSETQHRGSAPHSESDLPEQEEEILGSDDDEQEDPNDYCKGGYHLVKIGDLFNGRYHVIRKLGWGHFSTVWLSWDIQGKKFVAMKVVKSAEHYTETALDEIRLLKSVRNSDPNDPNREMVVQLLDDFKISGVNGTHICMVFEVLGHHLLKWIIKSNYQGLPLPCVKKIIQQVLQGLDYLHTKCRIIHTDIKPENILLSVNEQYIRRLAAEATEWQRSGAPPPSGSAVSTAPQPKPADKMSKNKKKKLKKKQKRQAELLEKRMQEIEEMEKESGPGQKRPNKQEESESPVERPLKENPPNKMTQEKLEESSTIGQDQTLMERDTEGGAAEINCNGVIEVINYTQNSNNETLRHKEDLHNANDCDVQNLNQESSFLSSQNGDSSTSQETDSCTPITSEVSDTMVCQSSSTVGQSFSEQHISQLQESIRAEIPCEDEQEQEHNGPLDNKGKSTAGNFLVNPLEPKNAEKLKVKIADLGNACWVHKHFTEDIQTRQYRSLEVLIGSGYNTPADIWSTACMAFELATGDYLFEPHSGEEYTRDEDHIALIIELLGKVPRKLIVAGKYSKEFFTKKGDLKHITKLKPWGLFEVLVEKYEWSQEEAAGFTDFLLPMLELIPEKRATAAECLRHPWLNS
Chain of CSNK1D (human) (P48730 whole entry, looked up): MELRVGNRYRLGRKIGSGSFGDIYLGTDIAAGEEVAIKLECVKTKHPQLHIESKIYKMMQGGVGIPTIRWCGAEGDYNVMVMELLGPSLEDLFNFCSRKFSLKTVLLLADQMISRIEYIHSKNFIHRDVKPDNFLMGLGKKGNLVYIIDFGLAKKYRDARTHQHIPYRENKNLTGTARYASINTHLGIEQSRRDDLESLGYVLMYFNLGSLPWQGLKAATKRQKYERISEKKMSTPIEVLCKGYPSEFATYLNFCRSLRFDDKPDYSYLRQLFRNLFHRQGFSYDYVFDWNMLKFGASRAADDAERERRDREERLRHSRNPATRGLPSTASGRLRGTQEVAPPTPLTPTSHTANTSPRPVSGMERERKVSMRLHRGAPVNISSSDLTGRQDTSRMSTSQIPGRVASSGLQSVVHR
Chain of NEK6 (human) (Q9HC98 whole entry, looked up): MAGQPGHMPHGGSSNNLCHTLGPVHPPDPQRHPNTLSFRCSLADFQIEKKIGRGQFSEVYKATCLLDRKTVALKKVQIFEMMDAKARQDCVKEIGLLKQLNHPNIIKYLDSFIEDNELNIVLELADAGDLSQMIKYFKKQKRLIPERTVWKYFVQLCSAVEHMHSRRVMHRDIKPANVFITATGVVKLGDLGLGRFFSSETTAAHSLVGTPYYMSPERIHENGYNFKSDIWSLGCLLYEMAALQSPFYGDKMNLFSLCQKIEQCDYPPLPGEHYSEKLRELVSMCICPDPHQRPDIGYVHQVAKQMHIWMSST
Chain of FGFR1 (human) (P11362 whole entry, looked up): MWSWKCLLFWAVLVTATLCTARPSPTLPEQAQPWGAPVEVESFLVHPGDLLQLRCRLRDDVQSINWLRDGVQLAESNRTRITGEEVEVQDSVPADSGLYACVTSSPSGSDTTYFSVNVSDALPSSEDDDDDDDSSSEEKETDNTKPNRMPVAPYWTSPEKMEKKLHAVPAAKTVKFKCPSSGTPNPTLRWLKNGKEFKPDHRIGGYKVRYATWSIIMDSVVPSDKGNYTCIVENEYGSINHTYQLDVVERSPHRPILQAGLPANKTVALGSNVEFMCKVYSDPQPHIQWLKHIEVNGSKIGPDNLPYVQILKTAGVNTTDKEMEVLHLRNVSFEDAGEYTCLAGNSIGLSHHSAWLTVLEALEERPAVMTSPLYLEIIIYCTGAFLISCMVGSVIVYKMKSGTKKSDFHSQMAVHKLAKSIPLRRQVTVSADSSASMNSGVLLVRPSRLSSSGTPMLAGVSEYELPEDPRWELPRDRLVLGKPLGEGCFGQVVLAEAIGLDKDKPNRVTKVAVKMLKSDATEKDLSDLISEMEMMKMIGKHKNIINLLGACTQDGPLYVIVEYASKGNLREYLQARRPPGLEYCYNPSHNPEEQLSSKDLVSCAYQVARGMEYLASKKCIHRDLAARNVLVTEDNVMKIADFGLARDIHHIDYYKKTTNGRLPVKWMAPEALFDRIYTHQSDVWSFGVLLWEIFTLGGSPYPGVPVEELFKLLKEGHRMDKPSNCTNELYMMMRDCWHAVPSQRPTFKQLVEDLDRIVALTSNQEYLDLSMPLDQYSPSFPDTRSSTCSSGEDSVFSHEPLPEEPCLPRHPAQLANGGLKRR
Chain of MKNK2 (human) (Q9HBH9 whole entry, looked up): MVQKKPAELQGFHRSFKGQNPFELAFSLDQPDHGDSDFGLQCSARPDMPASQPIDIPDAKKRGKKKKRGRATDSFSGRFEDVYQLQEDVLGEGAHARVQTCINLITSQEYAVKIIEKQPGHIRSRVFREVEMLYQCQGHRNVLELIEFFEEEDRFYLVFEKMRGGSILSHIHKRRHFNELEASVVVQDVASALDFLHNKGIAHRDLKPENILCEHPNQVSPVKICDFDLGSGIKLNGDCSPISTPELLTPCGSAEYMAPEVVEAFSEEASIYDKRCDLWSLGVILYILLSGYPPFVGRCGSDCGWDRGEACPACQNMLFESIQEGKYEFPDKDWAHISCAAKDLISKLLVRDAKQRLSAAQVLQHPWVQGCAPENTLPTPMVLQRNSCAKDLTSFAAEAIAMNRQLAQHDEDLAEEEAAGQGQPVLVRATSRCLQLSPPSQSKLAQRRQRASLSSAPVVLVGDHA

residual activity ([1]; compound 0.1 µM): 87% | residual activity ([1]; compound 1.0 µM): 69% | residual activity ([1]; compound 10.0 µM): 52% | residual activity (BRSK2 (human); compound 0.1 µM): 88% | residual activity (BRSK2 (human); compound 1.0 µM): 84% | residual activity (BRSK2 (human); compound 10.0 µM): 83% | residual activity (BTK (human); compound 0.1 µM): 83% | residual activity (BTK (human); compound 1.0 µM): 87% | residual activity (BTK (human); compound 10.0 µM): 92% | residual activity (CSK (human); compound 0.1 µM): 94% | residual activity (CSK (human); compound 1.0 µM): 93% | residual activity (CSK (human); compound 10.0 µM): 98% | residual activity (CSNK1D (human); compound 0.1 µM): 96% | residual activity (CSNK1D (human); compound 1.0 µM): 93% | residual activity (CSNK1D (human); compound 10.0 µM): 71% | residual activity (EEF2K (human); compound 0.1 µM): 90% | residual activity (EEF2K (human); compound 1.0 µM): 73% | residual activity (EEF2K (human); compound 10.0 µM): 78% | residual activity (FGFR1 (human); compound 0.1 µM): 91% | residual activity (FGFR1 (human); compound 1.0 µM): 92% | residual activity (FGFR1 (human); compound 10.0 µM): 63% | residual activity (GSK3B (human); compound 0.1 µM): 87% | residual activity (GSK3B (human); compound 1.0 µM): 96% | residual activity (GSK3B (human); compound 10.0 µM): 92% | residual activity (IKBKB (human); compound 0.1 µM): 104% | residual activity (IKBKB (human); compound 1.0 µM): 119% | residual activity (IKBKB (human); compound 10.0 µM): 102% | residual activity (MAPK1 (human); compound 0.1 µM): 93% | residual activity (MAPK1 (human); compound 1.0 µM): 85% | residual activity (MAPK1 (human); compound 10.0 µM): 86% | residual activity (MAPK3 (human); compound 0.1 µM): 93% | residual activity (MAPK3 (human); compound 1.0 µM): 85% | residual activity (MAPK8 (human); compound 1.0 µM): 107% | residual activity (MAPK8 (human); compound 10.0 µM): 95% | residual activity (MAPK9 (human); compound 0.1 µM): 92% | residual activity (MAPK9 (human); compound 1.0 µM): 93% | residual activity (MAPK9 (human); compound 10.0 µM): 98% | residual activity (MKNK2 (human); compound 0.1 µM): 92% | residual activity (MKNK2 (human); compound 1.0 µM): 93% | residual activity (MKNK2 (human); compound 10.0 µM): 79% | residual activity (NEK6 (human); compound 0.1 µM): 88% | residual activity (NEK6 (human); compound 1.0 µM): 75% | residual activity (NEK6 (human); compound 10.0 µM): 80% | residual activity (PAK7 (human); compound 1.0 µM): 88% | residual activity (PAK7 (human); compound 10.0 µM): 87% | residual activity (PLK1 (human); compound 0.1 µM): 98% | residual activity (PLK1 (human); compound 1.0 µM): 87% | residual activity (PLK1 (human); compound 10.0 µM): 88% | residual activity (RPS6KA3 KD1 KD2 (human); compound 0.1 µM): 86% | residual activity (RPS6KA3 KD1 KD2 (human); compound 1.0 µM): 67% | residual activity (RPS6KA3 KD1 KD2 (human); compound 10.0 µM): 25% | residual activity (RPS6KA5 KD1 KD2 (human); compound 0.1 µM): 80% | residual activity (RPS6KA5 KD1 KD2 (human); compound 1.0 µM): 34% | residual activity (RPS6KA5 KD1 KD2 (human); compound 10.0 µM): 6% | residual activity (SRPK1 (human); compound 0.1 µM): 108% | residual activity (SRPK1 (human); compound 1.0 µM): 106% | residual activity (SRPK1 (human); compound 10.0 µM): 101% | residual activity (TBK1 (human); compound 0.1 µM): 108% | residual activity (TBK1 (human); compound 1.0 µM): 105% | residual activity (TBK1 (human); compound 10.0 µM): 97%
Compound: CCc1cncnc1N1CCN(Cc2nc3cc(C(F)(F)F)ccc3[nH]2)CC1
residual activity (MAPK15 (human); compound 0.1 µM): 85% | residual activity (MAPK15 (human); compound 1.0 µM): 83% | residual activity (MAPK15 (human); compound 10.0 µM): 71%

residual activity ([1]; compound 0.001 µM): 85% | residual activity ([1]; compound 0.01 µM): 76% | residual activity (BRSK2 (human); compound 0.001 µM): 59% | residual activity (BRSK2 (human); compound 0.01 µM): 21% | residual activity (BRSK2 (human); compound 0.1 µM): 12% | residual activity (BTK (human); compound 0.001 µM): 95% | residual activity (BTK (human); compound 0.01 µM): 85% | residual activity (BTK (human); compound 0.1 µM): 93% | residual activity (CSK (human); compound 0.01 µM): 97% | residual activity (CSK (human); compound 0.1 µM): 102% | residual activity (CSNK1D (human); compound 0.001 µM): 94% | residual activity (CSNK1D (human); compound 0.01 µM): 94% | residual activity (CSNK1D (human); compound 0.1 µM): 89% | residual activity (EEF2K (human); compound 0.01 µM): 101% | residual activity (EEF2K (human); compound 0.1 µM): 106% | residual activity (FGFR1 (human); compound 0.001 µM): 96% | residual activity (FGFR1 (human); compound 0.01 µM): 61% | residual activity (FGFR1 (human); compound 0.1 µM): 18% | residual activity (GSK3B (human); compound 0.01 µM): 92% | residual activity (GSK3B (human); compound 0.1 µM): 49% | residual activity (IKBKB (human); compound 0.001 µM): 76% | residual activity (IKBKB (human); compound 0.01 µM): 74% | residual activity (MAPK1 (human); compound 0.001 µM): 108% | residual activity (MAPK1 (human); compound 0.01 µM): 95% | residual activity (MAPK1 (human); compound 0.1 µM): 79% | residual activity (MAPK3 (human); compound 0.001 µM): 97% | residual activity (MAPK3 (human); compound 0.01 µM): 89% | residual activity (MAPK3 (human); compound 0.1 µM): 82% | residual activity (MAPK8 (human); compound 0.001 µM): 114% | residual activity (MAPK8 (human); compound 0.01 µM): 117% | residual activity (MAPK8 (human); compound 0.1 µM): 106% | residual activity (MAPK9 (human); compound 0.01 µM): 123% | residual activity (MAPK9 (human); compound 0.1 µM): 118% | residual activity (MKNK2 (human); compound 0.001 µM): 93% | residual activity (MKNK2 (human); compound 0.01 µM): 86% | residual activity (MKNK2 (human); compound 0.1 µM): 78% | residual activity (NEK6 (human); compound 0.001 µM): 86% | residual activity (NEK6 (human); compound 0.01 µM): 84% | residual activity (NEK6 (human); compound 0.1 µM): 82% | residual activity (PAK7 (human); compound 0.001 µM): 84% | residual activity (PAK7 (human); compound 0.1 µM): 78% | residual activity (PLK1 (human); compound 0.001 µM): 86% | residual activity (PLK1 (human); compound 0.01 µM): 82% | residual activity (PLK1 (human); compound 0.1 µM): 72% | residual activity (RPS6KA3 KD1 KD2 (human); compound 0.001 µM): 82% | residual activity (RPS6KA3 KD1 KD2 (human); compound 0.01 µM): 65% | residual activity (RPS6KA3 KD1 KD2 (human); compound 0.1 µM): 19% | residual activity (RPS6KA5 KD1 KD2 (human); compound 0.001 µM): 83% | residual activity (RPS6KA5 KD1 KD2 (human); compound 0.01 µM): 87% | residual activity (RPS6KA5 KD1 KD2 (human); compound 0.1 µM): 80% | residual activity (SRPK1 (human); compound 0.001 µM): 98% | residual activity (SRPK1 (human); compound 0.01 µM): 96% | residual activity (SRPK1 (human); compound 0.1 µM): 93% | residual activity (TBK1 (human); compound 0.001 µM): 99% | residual activity (TBK1 (human); compound 0.01 µM): 83% | residual activity (TBK1 (human); compound 0.1 µM): 43%
Compound: C/C(=C1/C(=O)Nc2ccc(NC(N)=O)cc21)c1ccc[nH]1
residual activity (MAPK15 (human); compound 0.001 µM): 85% | residual activity (MAPK15 (human); compound 0.01 µM): 49% | residual activity (MAPK15 (human); compound 0.1 µM): 7%
